Source: patent US20080004302A1, “Novel Compounds” (ASTRAZENECA AB, priority 2006, published 2008)
pIC50: −log10 of the molar value. Read-outs that look alike come from different tables or passages of the source.

How the values were obtained:
[1] = target: T1, human cytochrome P450 (CYP) 3A4 (Homo sapiens, UniProt P08684); test: Cytochrome P450 inhibition assay, 3A4; format: in vitro ADME; conditions: test concentrations 0.1-10 μM
T1 construct: made in house; host or cells: yeast (microsomal fraction)
Method: (§1) The inhibitory potential (IC50) of test compounds against 5 human cytochrome P450 (CYP) isoforms (IA2, 2C9, 2C19, 3A4 and 2D6) was assessed using an automated fluorescent end point in vitro assay modified from Crespi (Crespi and Stresser, 2000). Microsomal subcellular fractions prepared from Yeast cell lines expressing each human CYP isoform were used as an enzyme source in this assay. The activity of the 5 major human CYPs was determined from the biotransformation of a number of coumarin substrates to fluorescent metabolites, in the presence of NADPH. […] Stock solutions of each CYP, with its respective substrate, were prepared in phosphate buffer pH7.4 (see Table 1) and 178 μl was added to the well of a black solid, flat bottom, 300 μl 96 well microtitre plate (Coming Costar). […] After pre-incubating at 37° C. for 5 min the reactions were started with addition of NADPH (20 μl, concentration shown in Table 1). The final solvent content in each incubation was <=2% (1% from the test compound and a maximum of 1% from the substrate). The appropriate solvent controls and substrate blanks were included in each experiment to assess control activity and identify any inherent fluorescence due to the test compounds. In addition, known inhibitors of each CYP were included as positive controls (see Table 3 for inhibitor concentrations and expected IC50 ranges). The reactions were stopped at defined timepoints (see Table 1) by quenching with 100 μl of solvent (acetonitrile:0.5M Tris buffer 80:20 v/v). The plates were read on a fluorimeter (Spectrafluor Plus) at the appropriate excitation and emission wavelengths (listed in Table 2) and the percent activity, corrected for control, was plotted against the test compound concentration.

[2] = target: T2, human cytochrome P450 (CYP) 1A2 (Homo sapiens, UniProt P05177)
T2 sequence (P05177 1-516): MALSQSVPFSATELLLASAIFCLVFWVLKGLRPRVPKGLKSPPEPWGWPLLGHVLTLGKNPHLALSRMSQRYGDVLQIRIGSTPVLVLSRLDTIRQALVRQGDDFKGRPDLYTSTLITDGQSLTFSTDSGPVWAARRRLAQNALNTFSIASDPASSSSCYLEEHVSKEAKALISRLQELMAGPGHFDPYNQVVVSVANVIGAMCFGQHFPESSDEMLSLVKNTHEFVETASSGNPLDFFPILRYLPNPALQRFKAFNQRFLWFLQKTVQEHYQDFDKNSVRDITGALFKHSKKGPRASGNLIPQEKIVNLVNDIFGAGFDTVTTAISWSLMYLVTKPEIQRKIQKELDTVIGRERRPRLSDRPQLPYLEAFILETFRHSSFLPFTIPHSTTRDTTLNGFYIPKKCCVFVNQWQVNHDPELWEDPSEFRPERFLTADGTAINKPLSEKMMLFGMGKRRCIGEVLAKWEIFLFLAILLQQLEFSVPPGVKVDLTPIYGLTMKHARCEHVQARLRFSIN
Method: as §1

[3] = target: human cytochrome P450 (CYP) 2C9 (Homo sapiens, UniProt P11712)
Method: as §1

[4] = target: human cytochrome P450 (CYP) 2C19 (Homo sapiens, UniProt P33261)
Method: as §1

CYP2D6 = CYP2D6 (Homo sapiens, UniProt P10635); test: in vitro; conditions: pH 7.4, probe coumarin substrate (not named)
Method: as §1

FGFR kinase domain = target: T3, FGFR kinase domain (Homo sapiens, UniProt P11362, C488A/C584S); test: Kinase assay (ELISA) for inhibition of FGFR activity; format: biochemical
T3 construct: FGFR kinase domain (amino acids 458-765, C488A, C584S) N-terminally fused to a His6-tag; made in house
Method: To determine inhibition of FGFR activity, kinase assays were conducted using ELISA (Enzyme-Linked Immunosorbent Assay) technology.
Kinase activity assays were performed in 384-well polypropylene plates (Matrix, 4311) with a total volume of 40 μl in each well. Each well was coated with 2 μg of polyEAY substrate (Sigma, P3899) at 4° C. overnight. The plates were then washed once with 100 μl PBS and once with 100 μl 50 mM HEPES (pH 7.4) prior to the addition of the kinase assay reagents. […] Various concentrations of test compounds were each added in 5% (v/v) DMSO to yield a final assay DMSO concentration of 1.25% (v/v). The kinase reactions were incubated at room temperature for 45 minutes and stopped by washing the plate three times with 100 μl PBS plus 0.05% Tween. […] Following this, the plates were then washed repeatedly with 100 μl PBS plus 0.05% Tween to remove all traces of the antibody solution. 40 μl of 50 μg/ml 3,3′,5,5′-Tetramethylbenzidine (Sigma, T2885), 0.05M phosphate-citrate buffer, containing 0.03% sodium perborate was added to each well and the plates incubated at room temperature for twelve minutes. The colour reaction was stopped by the addition of 20 μl 2M H2SO4 and the plates read at 450 nm on a Spectrafluor Plus (Tecan).

human IGF1R = target: T4, human IGF1R (Homo sapiens, UniProt P08069); test: Inhibition of insulin-like growth factor-1 receptor phosphorylation in R+ cells; format: cell-based; conditions: 30 nM IGF1, read-out: IGF cell class
T4 construct: expressed in transfected cells; host or cells: R+ cells (R- mouse fibroblasts transfected with human IGF1R)

Erk phosphorylation = test: Growth factor (bFGF) stimulated Erk phosphorylation in NIH 3T3 cells; conditions: Mus musculus
Source text: These and other assays were used to evaluate the ability of a test compound to inhibit growth factor stimulated cellular signalling in mammalian cell lines. This was achieved by measuring the amount of receptor tyrosine kinase regulated Erk phosphorylation within a cell following compound treatment.
NIH 3T3 (ECACC, 93061524) cells were routinely passaged in DMEM (Gibco BRL, 41966) plus 10% foetal calf serum (FCS), 1% L-glutamine (Gibco BRL, 25030) to a confluence not greater than 80%. To undertake the assay, NIH 3T3's were seeded at 1×10^4 cells/well in DMEM plus 10% foetal calf serum, 1% L-glutamine in 96 well plates (Costar, 3904) and incubated at 37° C. (+5% CO2) in a humidified incubator. Once the cells had fully adhered (typically following 4-5 hours incubation) the media was removed from each well and the cells gently washed with 100μl warm serum free media. 90μl of serum free DMEM plus 1% L-glutamine was then added to each well and the plates were returned to a humidified 37° C. (+5% CO2) incubator. The following day, the plates were dosed with 10[l compound (diluted from 10 mM stock in DMSO using serum free DMEM) and the plates were returned to a humidified 37° C. (+5% CO2) incubator for one hour. NIH 3T3 cells were then stimulated with a final concentration of 3 ng/ml bFGF (Sigma, F029 1) for 20 minutes at 37° C. Following stimulation the cells were fixed by adding formaldehyde (4% v/v final concentration) and incubating at room temperature for 20 minutes. The fixative solution was then removed and the wells were washed twice with 100μl phosphate buffered saline (PBS/A) before permeabilising the cells by the addition of 50 μl/well 0.1% triton/PBS/A for 10 minutes at room temperature. The permeabilisation solution was then removed and the cells washed twice more with 100 μl/well PBS/A before the addition of 50 μl/well anti-phospho p44/42 (Cell Signalling Technology, 9106), diluted 1/500 with PBS/A plus 10% FCS. The anti-phospho p44/42 antibody recognises Erk phosphorylated at threonine 202 and tyrosine 204. […] Finally, the plates were washed three times with 100 μl/well PBS/A, leaving the final wash in the wells before sealing the plates. The plates were read at 350 nm and 488 nm using an Arrayscan (Cellomics).

CYP3A4 = target: T5, CYP3A4 (Homo sapiens, UniProt P08684); test: Cytochrome P450 inhibition assay, 3A4; format: in vitro ADME; conditions: human, pH 7.4, probe coumarin substrate (not named); test concentrations 0.1-10 μM
T5 construct: made in house; host or cells: yeast (microsomal fraction)
Method: as §1

FGFR1 kinase = FGFR1 kinase (Homo sapiens, UniProt P11362); test: Kinase assay (using Caliper technology); format: biochemical; conditions: FGFR1 kinase, Caliper; upper bound of bin; read-out: IC50
Procedure, shortened: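 Human FGFR1 kinase activity measured with a 13-mer fluorescently tagged FGFR1-specific peptide substrate; compounds serially diluted in 5% (v/v) DMSO. Reactions ran 1.5 h at room temperature, stopped with EDTA-containing HEPES pH 7.5 buffer. Phosphorylated and unphosphorylated peptide separated by microfluidic mobility shift.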

FGFR1 IIIc [5] = target: T6, FGFR1 IIIc (Homo sapiens, UniProt P11362); test: Cell based inhibition of transiently expressed FGFR1 IIIc phosphorylation (Cos-1 cells); conditions: Cos-1 cells, phospho-FGFR1; upper bound of bin; read-out: IC50
T6 construct: host or cells: Cos-1

FGFR1 IIIc [6] = target: T6, FGFR1 IIIc; test: Cell based inhibition of transiently expressed FGFR1 IIIc phosphorylation via use of ECHO technology (Cos-1 cells); conditions: Cos-1 cells, phospho-FGFR1, ECHO dosing; upper bound of bin; read-out: IC50
[7] = comparative testing, read-out: Fgf Ic50
[8] = FGFR inhibition tests, ELISA kinase assay, read-out: Activity class

Chain of human cytochrome P450 (CYP) 2C9 (P11712 whole entry): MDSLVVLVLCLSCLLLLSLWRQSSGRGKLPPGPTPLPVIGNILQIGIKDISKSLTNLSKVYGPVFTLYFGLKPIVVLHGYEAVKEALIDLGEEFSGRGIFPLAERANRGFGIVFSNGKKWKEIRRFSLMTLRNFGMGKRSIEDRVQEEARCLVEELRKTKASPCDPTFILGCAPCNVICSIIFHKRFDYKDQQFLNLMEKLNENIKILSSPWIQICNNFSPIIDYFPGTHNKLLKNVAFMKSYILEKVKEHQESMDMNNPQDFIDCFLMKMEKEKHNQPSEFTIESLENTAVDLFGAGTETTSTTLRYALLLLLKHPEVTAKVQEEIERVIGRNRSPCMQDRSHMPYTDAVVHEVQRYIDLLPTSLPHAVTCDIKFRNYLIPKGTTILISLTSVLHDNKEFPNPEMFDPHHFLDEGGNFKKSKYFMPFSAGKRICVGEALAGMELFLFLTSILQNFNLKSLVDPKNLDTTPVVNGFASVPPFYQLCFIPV
T1 sequence (P08684 whole entry): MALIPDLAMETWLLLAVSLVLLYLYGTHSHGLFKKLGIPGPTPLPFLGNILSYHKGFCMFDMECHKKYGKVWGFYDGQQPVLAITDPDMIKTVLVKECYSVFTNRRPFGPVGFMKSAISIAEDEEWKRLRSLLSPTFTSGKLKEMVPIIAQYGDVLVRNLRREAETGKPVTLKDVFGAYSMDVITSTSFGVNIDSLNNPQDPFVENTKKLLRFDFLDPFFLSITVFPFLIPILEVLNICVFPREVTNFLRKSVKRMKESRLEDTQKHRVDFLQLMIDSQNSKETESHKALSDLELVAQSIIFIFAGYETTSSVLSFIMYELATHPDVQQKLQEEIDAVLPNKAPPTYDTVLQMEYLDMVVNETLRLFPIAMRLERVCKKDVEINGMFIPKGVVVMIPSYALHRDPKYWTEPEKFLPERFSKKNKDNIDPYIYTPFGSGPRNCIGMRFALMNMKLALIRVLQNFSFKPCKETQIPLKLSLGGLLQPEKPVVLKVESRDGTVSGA
Chain of CYP2D6 (P10635 whole entry, the tested form may be a part): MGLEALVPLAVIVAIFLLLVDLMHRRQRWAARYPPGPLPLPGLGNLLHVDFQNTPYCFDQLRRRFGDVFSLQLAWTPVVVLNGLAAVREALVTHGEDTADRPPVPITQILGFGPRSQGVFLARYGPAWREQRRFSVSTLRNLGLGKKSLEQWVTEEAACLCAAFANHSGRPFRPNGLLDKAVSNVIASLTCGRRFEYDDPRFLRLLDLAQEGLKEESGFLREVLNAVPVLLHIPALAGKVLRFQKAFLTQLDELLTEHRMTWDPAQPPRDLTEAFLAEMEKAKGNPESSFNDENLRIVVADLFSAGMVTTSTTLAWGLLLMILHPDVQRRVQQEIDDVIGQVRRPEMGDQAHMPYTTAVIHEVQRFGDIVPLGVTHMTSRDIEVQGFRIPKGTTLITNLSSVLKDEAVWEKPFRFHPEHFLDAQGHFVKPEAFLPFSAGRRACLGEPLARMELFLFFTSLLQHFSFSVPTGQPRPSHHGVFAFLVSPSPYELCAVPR
T4 sequence (P08069 31-1367): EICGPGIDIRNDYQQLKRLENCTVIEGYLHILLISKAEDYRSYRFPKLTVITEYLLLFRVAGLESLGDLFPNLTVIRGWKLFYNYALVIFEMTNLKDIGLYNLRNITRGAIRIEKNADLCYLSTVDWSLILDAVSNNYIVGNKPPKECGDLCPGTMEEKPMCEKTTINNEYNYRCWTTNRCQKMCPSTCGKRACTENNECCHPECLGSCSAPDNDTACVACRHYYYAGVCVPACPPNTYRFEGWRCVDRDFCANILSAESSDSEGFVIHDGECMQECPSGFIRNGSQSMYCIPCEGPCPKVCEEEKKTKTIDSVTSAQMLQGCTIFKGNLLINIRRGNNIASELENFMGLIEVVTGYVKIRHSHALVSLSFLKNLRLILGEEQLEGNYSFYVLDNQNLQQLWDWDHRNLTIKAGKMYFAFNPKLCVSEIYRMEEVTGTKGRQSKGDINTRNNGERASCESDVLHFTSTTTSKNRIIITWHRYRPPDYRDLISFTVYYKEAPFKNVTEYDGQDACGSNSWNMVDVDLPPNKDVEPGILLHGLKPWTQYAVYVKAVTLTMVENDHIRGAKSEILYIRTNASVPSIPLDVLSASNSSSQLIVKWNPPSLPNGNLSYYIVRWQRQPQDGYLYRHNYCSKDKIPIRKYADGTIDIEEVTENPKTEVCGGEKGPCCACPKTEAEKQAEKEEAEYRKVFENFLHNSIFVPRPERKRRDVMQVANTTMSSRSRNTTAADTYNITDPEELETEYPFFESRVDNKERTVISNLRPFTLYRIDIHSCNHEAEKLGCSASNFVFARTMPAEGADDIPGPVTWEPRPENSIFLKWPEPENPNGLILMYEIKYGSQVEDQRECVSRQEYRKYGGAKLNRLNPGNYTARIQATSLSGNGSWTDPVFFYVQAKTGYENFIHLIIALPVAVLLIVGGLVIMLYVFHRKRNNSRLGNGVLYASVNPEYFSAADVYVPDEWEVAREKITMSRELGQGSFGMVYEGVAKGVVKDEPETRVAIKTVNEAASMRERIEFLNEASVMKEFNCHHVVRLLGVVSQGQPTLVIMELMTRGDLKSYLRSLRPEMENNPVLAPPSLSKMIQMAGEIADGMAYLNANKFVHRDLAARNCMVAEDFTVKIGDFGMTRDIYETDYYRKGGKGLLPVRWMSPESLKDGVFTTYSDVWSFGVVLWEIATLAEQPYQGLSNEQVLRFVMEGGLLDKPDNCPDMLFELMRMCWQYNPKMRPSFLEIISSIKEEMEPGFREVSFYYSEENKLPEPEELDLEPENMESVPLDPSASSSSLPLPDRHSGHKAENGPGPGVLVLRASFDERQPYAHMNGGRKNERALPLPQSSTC
T3 sequence (P11362 458-765 C488A/C584S): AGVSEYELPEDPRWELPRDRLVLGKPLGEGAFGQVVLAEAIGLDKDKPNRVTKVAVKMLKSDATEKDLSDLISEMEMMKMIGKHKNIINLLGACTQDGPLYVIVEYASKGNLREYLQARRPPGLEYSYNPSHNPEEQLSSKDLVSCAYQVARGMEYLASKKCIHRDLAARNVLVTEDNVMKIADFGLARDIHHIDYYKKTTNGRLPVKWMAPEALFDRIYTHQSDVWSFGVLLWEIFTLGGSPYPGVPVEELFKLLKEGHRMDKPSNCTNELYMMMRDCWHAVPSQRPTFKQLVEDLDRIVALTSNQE
Chain of human cytochrome P450 (CYP) 2C19 (P33261 whole entry): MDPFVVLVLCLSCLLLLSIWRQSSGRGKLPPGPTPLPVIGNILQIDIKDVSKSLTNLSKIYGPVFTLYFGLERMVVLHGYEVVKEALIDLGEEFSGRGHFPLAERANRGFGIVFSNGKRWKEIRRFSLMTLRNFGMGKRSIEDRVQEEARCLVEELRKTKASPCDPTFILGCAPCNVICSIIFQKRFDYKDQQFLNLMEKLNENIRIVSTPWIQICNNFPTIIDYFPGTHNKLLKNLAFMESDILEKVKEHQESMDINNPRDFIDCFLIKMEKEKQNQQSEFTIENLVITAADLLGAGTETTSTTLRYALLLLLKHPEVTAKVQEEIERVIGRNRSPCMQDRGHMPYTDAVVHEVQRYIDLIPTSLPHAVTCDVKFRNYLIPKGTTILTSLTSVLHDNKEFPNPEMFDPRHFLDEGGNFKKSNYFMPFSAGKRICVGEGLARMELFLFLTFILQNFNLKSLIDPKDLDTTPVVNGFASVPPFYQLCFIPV
T6 sequence (P11362 22-822): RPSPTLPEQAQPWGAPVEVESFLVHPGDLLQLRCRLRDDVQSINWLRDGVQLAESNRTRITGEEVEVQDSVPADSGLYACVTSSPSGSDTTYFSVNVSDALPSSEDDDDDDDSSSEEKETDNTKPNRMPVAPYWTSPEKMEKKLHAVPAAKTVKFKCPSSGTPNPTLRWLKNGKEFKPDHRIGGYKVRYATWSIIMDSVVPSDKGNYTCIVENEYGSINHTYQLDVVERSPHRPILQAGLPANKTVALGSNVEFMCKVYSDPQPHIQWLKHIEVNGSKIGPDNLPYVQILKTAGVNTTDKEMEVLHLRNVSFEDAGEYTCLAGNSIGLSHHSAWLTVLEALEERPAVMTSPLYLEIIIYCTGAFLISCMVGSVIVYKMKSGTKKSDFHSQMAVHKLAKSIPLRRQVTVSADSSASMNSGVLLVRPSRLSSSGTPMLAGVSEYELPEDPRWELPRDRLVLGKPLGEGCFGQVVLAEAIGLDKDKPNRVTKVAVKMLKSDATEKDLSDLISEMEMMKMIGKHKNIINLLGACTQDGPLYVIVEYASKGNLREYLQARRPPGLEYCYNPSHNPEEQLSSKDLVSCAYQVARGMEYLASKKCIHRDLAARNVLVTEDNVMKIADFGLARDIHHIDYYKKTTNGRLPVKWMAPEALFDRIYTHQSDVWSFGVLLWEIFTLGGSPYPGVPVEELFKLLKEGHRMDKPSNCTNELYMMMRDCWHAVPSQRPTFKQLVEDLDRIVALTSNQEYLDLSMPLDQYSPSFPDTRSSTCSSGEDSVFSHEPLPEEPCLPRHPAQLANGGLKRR
T5 sequence (P08684 whole entry): as the sequence (P08684 whole entry) above
Chain of FGFR1 kinase (P11362 22-822): as the sequence (P11362 22-822) above

| Compound | pIC50 [1] | pIC50 [2] | pIC50 [3] | pIC50 [4] | pIC50 (CYP2D6) | pIC50 (FGFR kinase domain; [7]) | pIC50 (human IGF1R) | pIC50 (FGFR kinase domain; [8]) | pIC50 (CYP3A4) | pIC50 (FGFR1 kinase) | pIC50 (FGFR1 IIIc [5]) | pIC50 (FGFR1 IIIc [6]) | pIC50 (Erk phosphorylation; NIH3T3) | pIC50 (Erk phosphorylation; NIH3T3, NIH 3T3 cells, 3 ng/ml bFGF) |
| --- | --- | --- | --- | --- | --- | --- | --- | --- | --- | --- | --- | --- | --- | --- |
| Cc1cc(CNc2ncc(Cl)c(Nc3cc(C)[nH]n3)n2)on1 [(b), 5-chloro-N-[(3-methylisoxazol-5-yl)methyl]-N′-(5-methyl-2H-pyrazol-3-yl)pyrimidine-2,4-diamine] | 5.36 | 6.34 | 5.95 | < 5.00 | < 5.00 | – | – | – | – | – | – | – | – | – |
| Cc1cc(Nc2nc(NCc3cc(C)no3)ncc2Br)[nH]n1 [Comparative Example (a), 5-bromo-N-[(3-methylisoxazol-5-yl)methyl]-N′-(5-methyl-2H-pyrazol-3-yl)pyrimidine-2,4-diamine] | 5.48 | 6.10 | < 5.00 | < 5.00 | < 5.00 | 6.85 | – | – | – | – | – | – | – | – |
| CCCc1cc(Nc2nc(NCc3cc(C)no3)ncc2Br)n[nH]1 [Comparative Example (d), 5-bromo-N-[(3-methylisoxazol-5-yl)methyl]-N′-(5-propyl-2H-pyrazol-3-yl)pyrimidine-2,4-diamine] | 6.43 | ≥ 7.00 | 5.51 | 5.54 | < 5.00 | 7.05 | – | – | – | – | – | – | – | – |
| Cc1cc(CNc2nccc(Nc3cc(C)[nH]n3)n2)on1 [Example 1, N-[(3-methylisoxazol-5-yl)methyl]-N′-(5-methyl-2H-pyrazol-3-yl)pyrimidine-2,4-diamine] | 5.24 | < 5.00 | < 5.00 | < 5.00 | < 5.00 | – | < 5.00 | – | – | – | – | – | > 6.00 | – |

Second part, led by results:

| pIC50 [1] | pIC50 [2] | pIC50 [3] | pIC50 [4] | pIC50 (CYP2D6) | pIC50 (FGFR kinase domain; [7]) | pIC50 (human IGF1R) | pIC50 (FGFR kinase domain; [8]) | pIC50 (CYP3A4) | pIC50 (FGFR1 kinase) | pIC50 (FGFR1 IIIc [5]) | pIC50 (FGFR1 IIIc [6]) | Compound | pIC50 (Erk phosphorylation; NIH3T3) | pIC50 (Erk phosphorylation; NIH3T3, NIH 3T3 cells, 3 ng/ml bFGF) |
| --- | --- | --- | --- | --- | --- | --- | --- | --- | --- | --- | --- | --- | --- | --- |
| – | 5.66 | < 5.00 | < 5.00 | < 5.00 | 7.40 | 5.00 to 6.00 | > 7.00 | < 5.00 | – | – | – | Cc1cc(CNc2nccc(Nc3cc(C4CC4)[nH]n3)n2)on1 [Example 9, N′-(5-cyclopropyl-2H-pyrazol-3-yl)-N-[(3-methyl-1,2-oxazol-5-yl)methyl]pyrimidine-2,4-diamine] | – | – |
| – | – | – | – | – | – | 5.00 to 6.00 | > 7.00 | – | > 6.70 | > 6.70 | > 6.70 | COc1cc(COc2cc(Nc3ccnc(NCc4cc(C)no4)n3)n[nH]2)cc(OC)c1 [Example 73, N′-[5-[(3,5-dimethoxyphenyl)methoxy]-1H-pyrazol-3-yl]-N-[(3-methyl-1,2-oxazol-5-yl)methyl]pyrimidine-2,4-diamine] | – | > 6.70 |
| – | – | – | 5.34 to 5.82 | – | – | – | – | – | – | – | – | COc1ccc2[nH]c([S+]([O-])Cc3ncc(C)c(OC)c3C)nc2c1 (stereo not drawn) [Omeprazole] | – | – |
